Measured values reported in US6242482A, “Prostaglandin compounds and derivatives thereof, compositions containing the same and method of using the same for the treatment of congestive heart failure” (priority 2000, dated 2001).
Where “and” joins values, the source holds several entries; their conditions need not be identical. Equal entries are not always repeated. Where two headings read alike, the source gives them in different places.

Columns and labels:
[1] = system: Human Platelet Aggregation (collagen-induced); assay: Anti-aggregatory response, 1 min incubation with PRP, collagen-induced (Example 4); type: cell-based; conditions: 1 min with PRP; for Platelet Aggregation (mean): collagen 1 μg/ml
Description: (§1) Blood from healthy human volunteers who had not taken any medicine for at least 14 days was collected by venopuncture into 3.15% (w/v) tri-sodium citrate (9:1 v/v). The blood was centrifuged at 800 g for 15 minutes to produce PRP. The PRP was further centrifuged at 12,000 g for 1 minute to produce PPP.
(§2) Platelet aggregation was measured using a dual channel Payton aggregometer calibrated with PRP (0%) and PPP (100%) with respect to the degree of light transmission. Aliquots of PRP (500 μl) were added to siliconized cuvettes, stirred (1000 revs/min) and warmed to 37° C. The platelets were incubated for 1 minute to establish a stable baseline prior to testing. A submaximal concentration of the aggregating agent collagen (1 μg/ml) was added to the PRP and the platelet aggregation was monitored as the increase in light transmission observed over a 4 minute period.
The percent inhibition of the platelet aggregation was calculated using the peak increase in light transmission observed over the 4 minute period following the addition of collagen, as compared to that of the control. This experiment was repeated using PRP from at least three human volunteers.

[2] = system: Human Platelet Aggregation (collagen-induced); assay: Anti-aggregatory response after incubation with aqueous vehicle (acetate buffer) (Example 4); type: cell-based
Description: as §1, §2
(§3) After the incubation period, a 50 μl aliquot of the aqueous vehicle with the corresponding sample compound was added to fresh PRP (450 μl) for determination of anti-aggregatory activity following challenge with collagen. This experiment was repeated using PPP from at least three human volunteers. […] The data in both Tables 2 and 3 are shown as the mean and the standard error of n number of donors.

[3] = system: Human Platelet Aggregation (collagen-induced); assay: Anti-aggregatory response after incubation with human PPP (Example 4); type: cell-based
Description: as §1, §2, §3

[4] = system: Human Platelet Aggregation (collagen-induced); assay: Anti-aggregatory activity, 1 min incubation with PRP, collagen-induced (Example 8); type: cell-based; conditions: 1 minute with PRP
Description: as §1, with “PPP. A total of 12 volunteers donated blood for the study.” for “PPP.”
as §2, with “studied” for “measured”, “investigation.” for “testing.”
The percentage inhibition of the platelet aggregation was calculated using the peak increase in light transmission observed over the 4 minute period following addition of collagen, as compared to that of control. This experiment was repeated using PRP from at least three human volunteers for each compound under study.

[5] = system: Human Platelet Aggregation (collagen-induced); assay: Anti-aggregatory response after incubation with PPP (Example 8); type: cell-based; conditions: up to 4 hours at 37° C
Description: as §1, with “PPP. A total of 12 volunteers donated blood for the study.” for “PPP.”
as §2, with “studied” for “measured”, “investigation.” for “testing.”
(§4) After the incubation period, an aliquot of the PPP or aqueous vehicle (50 μl) was added to fresh PRP (450 μl) for determination of anti-platelet activity. This experiment was repeated using PPP from at least three human volunteers for each compound.

[6] = system: Human Platelet Aggregation (collagen-induced); assay: Anti-aggregatory response after incubation with aqueous vehicle (Example 8); type: cell-based; conditions: up to 4 hours at 37° C
Description: as §1, with “PPP. A total of 12 volunteers donated blood for the study.” for “PPP.”
as §2, with “studied” for “measured”, “investigation.” for “testing.”
as §4

[7] = system: mean arterial pressure and heart rate of anesthetized rats; assay: Systemic hemodynamic effects, intravenous, anesthetized rats (Example 9); type: in vivo, rat (male Wistar)
Description: Among other effects, lowering of the blood pressure inside the blood vessels is beneficial for the treatment of congestive heart failure by reducing the vascular resistance of the blood flow which substantially reduces the work load imposed on the heart. […] This study involved the use of male Wistar rats anaesthetized with thiopentone sodium ([…]®, 120 mg kg^-1 i.p.). The trachea was cannulated to facilitate breathing.

[8] = system: mean arterial pressure and heart rate of anesthetized rats; conditions: for Time of Δmax (superscript) / t1/2 / Δmax (Mean Arterial Pressure): Table 4; for Mean Arterial Pressure: 0,1,5,10,15,30,60,120,180,240,360 min
Description: Male Wistar rats (250-330 g) were anesthetized with thiopentone sodium (INTRAVAL®, 120 mg/kg i.p.). The trachea was cannulated to facilitate respiration. The right carotid artery was cannulated and connected to a pressure transducer (Spectramed P23XL), for the measurement of mean arterial pressure (MAP) and heart rate (HR) which were continuously recorded on a 4-channel Grass 7D polygraph recorder (Grass, Mass., U.S.A.). Body temperature was maintained at 37±1°C. by means of a rectal probe thermometer attached to a homeothermic blanket control unit (Harvard Apparatus Ltd.).

CCCCC[C@H](O)CC[C@@H]1[C@H]2Cc3cccc(OCC(=O)O)c3C[C@H]2C[C@H]1O [Compound X]
Platelet Aggregation (mean) ([1]; 1 ng/ml final): 101 % of Control | Platelet Aggregation (mean) ([1]; 3 ng/ml final): 98 % of Control | Platelet Aggregation (mean) ([1]; 10 ng/ml final): 60 % of Control | Platelet Aggregation (mean) ([1]; 30 ng/ml final): 1 % of Control | Platelet Aggregation (mean) ([1]; 100 ng/ml final): 1 % of Control | inhibition of aggregation response at highest concentrations ([1]; Compound X 30 and 100 ng/ml, Compound 1 3 mg/ml, Compound 3 10 mg/ml): completely inhibited the aggregation response | concentration inhibiting aggregation by 50% (ID50) ([1]; collagen): 0.02 µg/mL | inhibition of platelet aggregation, concentration dependence ([1]; collagen): concentration-dependentinhibition of collagen-induced platelet aggregation | Platelet Aggregation (mean) ([2]; 3 ng/ml final, 1 Hour in acetate buffer): 107 % of Control | Platelet Aggregation (mean) ([2]; 3 ng/ml final, 4 Hours in acetate buffer): 94 % of Control | Platelet Aggregation (mean) ([2]; 3 ng/ml final, 15 Minutes in acetate buffer): 98 % of Control | Platelet Aggregation (mean) ([2]; 30 ng/ml final, 1 Hour in acetate buffer): 8 % of Control | Platelet Aggregation (mean) ([2]; 30 ng/ml final, 4 Hours in acetate buffer): 8 % of Control | Platelet Aggregation (mean) ([2]; 30 ng/ml final, 15 Minutes in acetate buffer): 3 % of Control | effect of incubation with aqueous vehicle on anti-platelet activity ([2]; 15 minutes, 1 hour and 4 hours): no significant effect on the degree of anti-platelet activity | Platelet Aggregation (mean) ([3]; 3 ng/ml final, 1 Hour in human PPP): 100 % of Control | Platelet Aggregation (mean) ([3]; 3 ng/ml final, 4 Hours in human PPP): 91 % of Control | Platelet Aggregation (mean) ([3]; 3 ng/ml final, 15 Minutes in human PPP): 101 % of Control | Platelet Aggregation (mean) ([3]; 30 ng/ml final, 1 Hour in human PPP): 1 % of Control | Platelet Aggregation (mean) ([3]; 30 ng/ml final, 4 Hours in human PPP): 1 % of Control | Platelet Aggregation (mean) ([3]; 30 ng/ml final, 15 Minutes in human PPP): 1 % of Control | effect of incubation with PPP on anti-platelet activity ([3]; 15 minutes, 1 hour and 4 hours): no significant effect on the anti-platelet activity | concentration inhibiting aggregation by 50% (IC50) [4]: 0.019 ± 0.001 µg/mL | inhibition of platelet aggregation, concentration dependence [4]: concentration dependent inhibition of collagen-induced platelet aggregation | inhibition of aggregation response at highest concentrations ([4]; X 30 and 100 ng/ml, 4 300 μg/ml, 6 3 mg/ml, 7 10 mg/ml): completely inhibited the aggregation response | effect of incubation with PPP on anti-platelet activity [5]: not affected by incubation | effect of incubation with aqueous vehicle/saline/buffer on anti-platelet activity [6]: not affected by incubation | effective life of the fall in MAP ([7]; comparison of Compound 4 with Compound X (1 mg/kg i.v.)): 30 min | fall in MAP ([7]; i.v., Compound X 1 mg/kg, Compound 4 1-10 mg/kg, others 3-30 mg/kg): similar, maximal fall in MAP to the highest dose of Compound 4 | Time of Δmax (superscript) ([8]; 0.1 mg/kg s.c.): 15 min | t1/2 ([8]; 0.1 mg/kg s.c.): 2.75 h | Δmax (Mean Arterial Pressure) ([8]; 0.1 mg/kg s.c.): 46 ± 5 mm Hg | Mean Arterial Pressure ([8]; 0.3 mg/kg s.c.): 101 ± 12 mm Hg | Time of Δmax (superscript) ([8]; 0.3 mg/kg s.c.): 10 min | t1/2 ([8]; 0.3 mg/kg s.c.): 1.33 to 1.83 h | Δmax (Mean Arterial Pressure) ([8]; 0.3 mg/kg s.c.): 52 mm Hg | maximum fall in MAP ([8]; 1 mg/kg s.c.): about 70 mm Hg | time of maximum fall in MAP ([8]; 1 mg/kg s.c.): 15 min | Mean Arterial Pressure ([8]; 1 mg/kg s.c.): 88 ± 5 mm Hg and 98 ± 6 mm Hg | Time of Δmax (superscript) ([8]; 1 mg/kg s.c.): 15 min | t1/2 ([8]; 1 mg/kg s.c.): 2.25 to 4.83 h | Δmax (Mean Arterial Pressure) ([8]; 1 mg/kg s.c.): 71 ± 8 mm Hg | heart rate / tachycardia ([8]; rat, in vivo, sc): dose-dependent increase in heart rate | fall in MAP ([8]; s.c., Compound 4 1-10 mg/kg, Compound X 0.1-1 mg/kg, Compounds 7 and 8 3-30 mg/kg): rapid dose-related fall in MAP
